Source: PubChem BioAssay (NCI)
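Dose response: 5 concentrations. Exposure: 48 h. Format: 96-well plates. Endpoint: linear interpolation; highest concentration if not reached. At the GI50, growth is halved. TGI: total growth inhibition.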

How the values were obtained:
Assay in all cases: NCI anticancer screen, dose series, 48 h
SW-620 colon = system: SW-620 colon
SF-539 CNS = system: SF-539 CNS
SK-MEL-2 melanoma = system: SK-MEL-2 melanoma
UACC-257 melanoma = system: UACC-257 melanoma
OVCAR-3 ovarian = system: OVCAR-3 ovarian
SN12C renal = system: SN12C renal
PC-3 prostate = system: PC-3 prostate
A498 renal = system: A498 renal
SK-OV-3 ovarian = system: SK-OV-3 ovarian
HOP-62 NSCLC = system: HOP-62 NSCLC

CCc1ccc2nc(-c3ccc(O)cc3)sc2c1
TGI (SW-620 colon): 38 µM | TGI (SF-539 CNS): 27.8 µM | TGI (SK-MEL-2 melanoma): 31.9 µM | TGI (UACC-257 melanoma): 35.7 µM | TGI (OVCAR-3 ovarian): 28.1 µM | TGI (SN12C renal): 27.7 µM | TGI (PC-3 prostate): 29 µM | TGI (A498 renal): 34.2 µM | TGI (SK-OV-3 ovarian): 32.3 µM

CN(C)c1ccc(C(Cc2ccc3ccccc3n2)Cc2ccc3ccccc3n2)cc1
GI50 (HOP-62 NSCLC): 5.84 µM | TGI (HOP-62 NSCLC): > 100 µM | GI50 (SF-539 CNS): 4740 nM | TGI (SF-539 CNS): > 100 µM

N#Cc1c(N)sc2c1-c1ccccc1OC2
TGI (HOP-62 NSCLC): > 100 µM | TGI (SW-620 colon): > 100 µM | TGI (SF-539 CNS): > 100 µM | TGI (SK-MEL-2 melanoma): > 100 µM | TGI (UACC-257 melanoma): > 100 µM | TGI (OVCAR-3 ovarian): 61.7 µM | TGI (SN12C renal): 68.6 µM | TGI (PC-3 prostate): > 100 µM | TGI (A498 renal): > 100 µM | TGI (SK-OV-3 ovarian): > 100 µM

CCOC(=O)C(O)(NC(=O)c1ccccc1F)C(F)(F)F (stereo not drawn)
TGI (HOP-62 NSCLC): > 100 µM | TGI (SW-620 colon): > 100 µM | TGI (SF-539 CNS): > 100 µM | TGI (SK-MEL-2 melanoma): > 100 µM | TGI (UACC-257 melanoma): > 100 µM | TGI (OVCAR-3 ovarian): > 100 µM | TGI (SN12C renal): > 100 µM | TGI (PC-3 prostate): > 100 µM | TGI (SK-OV-3 ovarian): > 100 µM

CCCCCCCCCCCCCC[n+]1ccc2c(C)c3c(c(C)c2c1)c1cc(O)ccc1n3CC
GI50 (HOP-62 NSCLC): 0.408 µM | TGI (HOP-62 NSCLC): 1.94 µM | GI50 (SF-539 CNS): 419 nM | TGI (SF-539 CNS): 1.52 µM | GI50 (SK-MEL-2 melanoma): 256 nM | TGI (SK-MEL-2 melanoma): 0.774 µM | GI50 (SN12C renal): 341 nM | TGI (SN12C renal): 1.31 µM | GI50 (PC-3 prostate): 356 nM | TGI (PC-3 prostate): 1.33 µM | GI50 (A498 renal): 327 nM | TGI (A498 renal): 1.27 µM | GI50 (SK-OV-3 ovarian): 280 nM | TGI (SK-OV-3 ovarian): 0.849 µM

COc1cc(/C=C/C(=O)c2c(C)nc3ccccc3c2C)ccc1OCCCOc1cc2c(cc1OC)C(=O)N1CCC[C@H]1C=N2
GI50 (HOP-62 NSCLC): 0.0303 µM | TGI (HOP-62 NSCLC): 0.0609 µM | GI50 (SF-539 CNS): 23.9 nM | TGI (SF-539 CNS): 0.0563 µM | GI50 (SK-MEL-2 melanoma): 87.7 nM | TGI (SK-MEL-2 melanoma): 0.331 µM | GI50 (UACC-257 melanoma): 0.0269 µM | TGI (UACC-257 melanoma): 0.0838 µM | GI50 (OVCAR-3 ovarian): 0.0247 µM | TGI (OVCAR-3 ovarian): 0.0556 µM | GI50 (SN12C renal): 35.3 nM | TGI (SN12C renal): 0.327 µM | GI50 (PC-3 prostate): 32.6 nM | TGI (PC-3 prostate): 1.15 µM | GI50 (A498 renal): 19.4 nM | TGI (A498 renal): 0.0419 µM | GI50 (SK-OV-3 ovarian): 64 nM | TGI (SK-OV-3 ovarian): 1.13 µM

CO/N=C(\C)COc1ccc2c(=O)c(-c3ccccc3)coc2c1
GI50 (HOP-62 NSCLC): 17.8 µM | TGI (HOP-62 NSCLC): 46.6 µM | GI50 (SW-620 colon): > 100 µM | TGI (SW-620 colon): > 100 µM | GI50 (UACC-257 melanoma): 25.6 µM | TGI (UACC-257 melanoma): 97.3 µM | GI50 (OVCAR-3 ovarian): 30.2 µM | TGI (OVCAR-3 ovarian): 74.2 µM | GI50 (SN12C renal): 30100 nM | TGI (SN12C renal): 68.9 µM | GI50 (PC-3 prostate): 34500 nM | TGI (PC-3 prostate): > 100 µM | GI50 (SK-OV-3 ovarian): 21900 nM | TGI (SK-OV-3 ovarian): 80 µM

COc1cc(C2C(C(=O)O)=C(COC(C)=O)Oc3cc4c(cc32)OCO4)cc(OC)c1OC (stereo not drawn)
TGI (HOP-62 NSCLC): > 100 µM | TGI (SW-620 colon): > 100 µM | TGI (SK-MEL-2 melanoma): > 100 µM | TGI (UACC-257 melanoma): > 100 µM | TGI (OVCAR-3 ovarian): > 100 µM | TGI (SN12C renal): > 100 µM | TGI (SK-OV-3 ovarian): > 100 µM

CNC(=O)N(C)COC
TGI (HOP-62 NSCLC): > 100 µM | TGI (SW-620 colon): > 100 µM | TGI (SF-539 CNS): > 100 µM | TGI (SK-MEL-2 melanoma): > 100 µM | TGI (UACC-257 melanoma): > 100 µM | TGI (OVCAR-3 ovarian): > 100 µM | TGI (SN12C renal): > 100 µM | TGI (A498 renal): > 100 µM | TGI (SK-OV-3 ovarian): > 100 µM

O=C(O)c1cn2c3c(cc(N4CCN(CCO)CC4)cc3c1=O)SCC2
TGI (HOP-62 NSCLC): > 100 µM | TGI (SW-620 colon): > 100 µM | TGI (SF-539 CNS): > 100 µM | TGI (SK-MEL-2 melanoma): > 100 µM | TGI (UACC-257 melanoma): > 100 µM | TGI (OVCAR-3 ovarian): > 100 µM | TGI (SN12C renal): > 100 µM | TGI (A498 renal): > 100 µM | TGI (SK-OV-3 ovarian): > 100 µM
